The values below come from ChEMBL document CHEMBL1201862, “PubChem BioAssay data set” (2004).

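1) Cells in 96-well plates. 2) Compound, 48 h, 5 concentrations. 3) Linear interpolation between surrounding doses. 4) Unreached endpoint = highest concentration. The concentration for 50% growth inhibition is given as GI50.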 The source made the active and inactive calls. Cut-off read from the data, not from the text of the source: active = GI50 up to about 1.1 µM and inactive = higher.

Test in all cases: inhibition of tumour cell growth, NCI panel, 48 h
The subject of assay [1] is HCT-15.
Assay [2] has as its system SK-MEL-28.
For assay [3], the system named is OVCAR-5.
The subject of assay [4] is LOX IMVI.
For assay [5], the system named is PC-3.
The test system of assay [6] is T47D.
The subject of assay [7] is OVCAR-3.
Assay [8] has as its system UACC-257.
Assay [9] has as its system HOP-92.
Assay [10] relates to MDA-MB-231.
The test system of assay [11] is COLO 205.
The subject of assay [12] is NCI-H226.
Assay [13] relates to A498.
Assay [14] concerns DU-145.
Assay [15] deals with NCI-H460.
Assay [16] has as its system OVCAR-4.
The subject of assay [17] is CCRF-CEM.
In assay [18] the test system is SF-268.
In assay [19] the test system is Malme-3M.

With `CC(=O)c1ccc(NCc2cc(O)ccc2O)cc1`, the GI50 was 24.9 µM in assay [1]; 40.3 µM (inactive) in assay [2]; 21.3 µM (inactive) in assay [3]; 24.8 µM (inactive) in assay [4]; 15.2 µM (inactive) in assay [5]; 14.3 µM (inactive) in [6]. The GI50 in [7] is 7.06 µM (inactive); in assay [8] it was 17.5 µM (inactive); in [9] it was 17.9 µM (inactive); in assay [10], 21.8 µM (inactive); in assay [11], 11.8 µM (inactive); in [12], 34.7 µM (inactive). For the same compound, the GI50 in assay [13] was 36.1 µM (inactive); in assay [14] it was 23 µM (inactive); in [15] it was 23.1 µM (inactive); in assay [16], 18.5 µM (inactive); in [17] it was 8.55 µM (inactive).

In the case of `Cc1occc1/C(S)=N\c1ccc(Cl)c(C(=O)OCC(F)(F)F)c1`, the GI50 is 19.6 µM in [1]; 20.7 µM (inactive) in assay [18]; 21.5 µM (inactive) in assay [2]; 34.6 µM (inactive) in assay [3]; 18.4 µM (inactive) in [4]; 23.7 µM (inactive) in assay [5]. For the same compound, the GI50 was 26.5 µM (inactive) in [6]; 29.8 µM (inactive) in assay [19]; 29.6 µM (inactive) in [7]; 23.4 µM (inactive) in assay [8]; 17.4 µM (inactive) in assay [9]; 18 µM (inactive) in [10]. The GI50 is 22.4 µM (inactive) in assay [11]; 18.6 µM (inactive) in [12]; 15 µM (inactive) in assay [13]; 22.4 µM (inactive) in assay [14]; 22.1 µM (inactive) in [15]; 17.9 µM (inactive) in assay [16]. In addition, the GI50 in assay [17] is 17.9 µM (inactive).

On to `CCOP(=O)(OCC)C(N)c1ccc(Cl)cc1` (configuration not stated), for which the GI50 in assay [1] is above 100 µM; in assay [18], > 100 µM (inactive); in assay [2] it was > 100 µM (inactive); in assay [3], > 100 µM (inactive); in assay [4], > 100 µM (inactive); in assay [5], > 100 µM (inactive). Further, the GI50 in assay [6], in assay [19], in assay [8], in assay [9], in assay [10] and in assay [11] was > 100 µM (inactive) each time. In addition, the GI50 in assay [13], in assay [14], in [15], in assay [16] and in assay [17] was > 100 µM (inactive) each time.

For the compound `CO/N=C(/C(=O)OC)c1ccccc1COc1cccc(C(F)(F)F)c1`, the GI50 in [1] was 29.2 µM; in [18] it was 35.5 µM (inactive); in assay [2] it was 78.7 µM (inactive); in assay [3], 76.2 µM (inactive); in assay [4], 22.9 µM (inactive); in assay [5], 22 µM (inactive). The GI50 in assay [6] was 9.55 µM (inactive); in [19] it was 2.3 µM (inactive); in assay [7], 11.6 µM (inactive); in [8], 8.51 µM (inactive); in assay [9], 36.2 µM (inactive); in [10], 72.8 µM (inactive). For the same compound, the GI50 in [11] is 41.8 µM (inactive); in [12], 29.4 µM (inactive); in assay [13], 43.5 µM (inactive); in [14], 26.5 µM (inactive); in assay [15] it was 28.8 µM (inactive); in assay [16], 19.5 µM (inactive). The GI50 in assay [17] was 16 µM (inactive).

With `C(=N\Nc1nnc2c(n1)[nH]c1ccccc12)/c1cccnc1`, the GI50 in assay [1] was above 100 µM; in assay [18], > 100 µM (inactive); in assay [2], > 100 µM (inactive); in [3], > 100 µM (inactive); in assay [4], > 100 µM (inactive); in assay [5], > 100 µM (inactive). For the same compound, the GI50 in assay [6] is > 100 µM (inactive); in assay [19], 57.8 µM (inactive); in assay [7] it was > 100 µM (inactive); in [8] it was > 100 µM (inactive); in [9] it was > 100 µM (inactive); in assay [10] it was > 100 µM (inactive). For the same compound, the GI50 in [11], in assay [12], in [13], in assay [14], in assay [15] and in assay [16] was > 100 µM (inactive) throughout.

As for `COc1ccc(N2C(=O)C3c4[nH]c5ccc(OC)cc5c4C4CCC(C(C)C)CC4C3C2=O)cc1` (configuration not stated), the GI50 in [1] was above 100 µM; in assay [18], 19.5 µM (inactive); in assay [2], > 73.6 µM (inactive); in [3], > 100 µM (inactive); in [4], > 100 µM (inactive); in [5], > 100 µM (inactive). Besides, the GI50 in assay [6] was > 100 µM (inactive); in assay [7], > 100 µM (inactive); in assay [8], > 100 µM (inactive); in assay [9], > 54.2 µM (inactive); in [10] it was 30.4 µM (inactive); in assay [11] it was > 100 µM (inactive). In addition, the GI50 was > 100 µM (inactive) in assay [12]; 28 µM (inactive) in [13]; > 100 µM (inactive) in [14]; 27.5 µM (inactive) in assay [15]; > 55.1 µM (inactive) in [16]; 7.73 µM (inactive) in [17].

Regarding `CCOC(=O)C(Cc1ccc(OC(=O)c2ccc(OC)cc2OC)cc1)NC(=O)C(F)(F)F` (configuration not stated), the GI50 in assay [1] is 21.1 µM; in assay [18] it was 31.1 µM (inactive); in assay [3], > 100 µM (inactive); in [4], 18.6 µM (inactive); in [5], 21.8 µM (inactive); in assay [6] it was 23.8 µM (inactive). The GI50 was 21.3 µM (inactive) in assay [19]; 19.5 µM (inactive) in assay [7]; 15.3 µM (inactive) in [8]; 23.1 µM (inactive) in assay [9]; 57.7 µM (inactive) in [10]; 18.7 µM (inactive) in [11]. Further, the GI50 in assay [12] was 65.2 µM (inactive); in assay [13], 15.7 µM (inactive); in assay [14], 19.8 µM (inactive); in assay [15], 34.8 µM (inactive); in [16], 23.5 µM (inactive); in [17], 19.2 µM (inactive).

Turning to `COC(=O)CCCc1c(-c2[nH]c3ccccc3c2CCCC(=O)OC)[nH]c2ccccc12`, the GI50 in assay [1] was above 100 µM; in assay [18], > 100 µM (inactive); in assay [2], > 100 µM (inactive); in assay [3], > 100 µM (inactive); in assay [4] it was > 100 µM (inactive); in assay [5], > 100 µM (inactive). Also, the GI50 in [6] is > 100 µM (inactive); in assay [19], 39.3 µM (inactive); in assay [7], > 100 µM (inactive); in assay [8] it was > 100 µM (inactive); in [9] it was > 100 µM (inactive); in [10], > 100 µM (inactive). In addition, the GI50 in [11], in [12], in [13], in [14], in assay [15] and in assay [17] was > 100 µM (inactive) throughout.

`CC1=NN(c2ccc(S(=O)(=O)O)cc2)C2(C1)SCC(=O)N2c1nc2ccccc2s1` (configuration not stated): the GI50 is above 100 µM in [1]; > 100 µM (inactive) in assay [18]; > 100 µM (inactive) in [2]; > 100 µM (inactive) in assay [3]; 66.1 µM (inactive) in assay [4]; > 100 µM (inactive) in assay [5]. The GI50 in assay [6], in assay [19], in assay [7], in [8], in [9] and in assay [10] was > 100 µM (inactive) throughout. Besides, the GI50 in [11], in [12], in [13], in assay [14], in assay [15] and in [16] was > 100 µM (inactive) throughout.

As to `COC(=O)CC[N+]1=CCC(c2ccccc2)(c2ccccc2)O1`, the GI50 in [1] was above 100 µM; in assay [18], > 100 µM (inactive); in assay [2], > 100 µM (inactive); in [3] it was > 100 µM (inactive); in assay [5], > 100 µM (inactive); in assay [6], > 100 µM (inactive). For the same compound, the GI50 in [7], in assay [8], in [9], in [10], in assay [11] and in [12] was > 100 µM (inactive) each time. Further, the GI50 in assay [13], in assay [14], in [15] and in [16] was > 100 µM (inactive) in each case.

As for `Cc1cccc2c(O)c3c(O)cc(O)cc3nc12`, the GI50 was above 10 µM in [1]; > 10 µM (inactive) in assay [18]; > 10 µM (inactive) in assay [2]; > 10 µM (inactive) in assay [3]; > 10 µM (inactive) in assay [4]; > 10 µM (inactive) in [5]. The GI50 in assay [6], in assay [19], in assay [7], in assay [8], in [9] and in assay [10] was > 10 µM (inactive) in each case. Further, the GI50 in assay [11], in assay [12], in assay [13], in assay [14], in assay [15] and in assay [16] was > 10 µM (inactive) in each case. The GI50 in [17] was > 10 µM (inactive).
